Experimental data from ChEMBL document CHEMBL1681651, “A broad spectrum anticancer nucleoside with selective toxicity against human colon cells in vitro” (2011).

Assays:
Format in all cases: functional
[1] = test system: EKVX; assay: Growth inhibition of human EKVX cells assessed as cell growth at 10 uM after 48 hrs by SRB assay; conditions: read-out: Activity
[2] = test system: HOP-62; assay: Growth inhibition of human HOP62 cells assessed as cell growth at 10 uM after 48 hrs by SRB assay; conditions: HOP-62, 48 h, read-out: Activity
[3] = test system: HOP-92; assay: Growth inhibition of human HOP92 cells assessed as cell growth at 10 uM after 48 hrs by SRB assay; conditions: HOP-92, 48 h, read-out: Activity
[4] = test system: HCT-116; assay: Growth inhibition of human HCT116 cells assessed as cell growth at 10 uM after 48 hrs by SRB assay; conditions: HCT-116, 48 h, read-out: Activity
[5] = test system: HT-29; assay: Growth inhibition of human HT-29 cells assessed as cell growth at 10 uM after 48 hrs by SRB assay; conditions: HT-29, 48 h, read-out: Activity
[6] = test system: SNB-75; assay: Growth inhibition of human SNB75 cells after 48 hrs by […] growth inhibition assay; conditions: SNB-75, 48 h
[7] = test system: U-251; assay: Growth inhibition of human U251 cells after 48 hrs by […] growth inhibition assay; conditions: U-251, 48 h
[8] = test system: OVCAR-8; assay: Growth inhibition of human OVCAR8 cells after 48 hrs by […] growth inhibition assay; conditions: OVCAR-8, 48 h
[9] = test system: SK-OV-3; assay: Growth inhibition of human SKOV3 cells after 48 hrs by […] growth inhibition assay; conditions: SK-OV-3, 48 h
[10] = test system: 786-0; assay: Growth inhibition of human 786-0 cells after 48 hrs by […] growth inhibition assay; conditions: 786-0, 48 h
[11] = test system: CAKI-1; assay: Growth inhibition of human Caki1 cells after 48 hrs by […] growth inhibition assay; conditions: CAKI-1, 48 h
[12] = test system: EKVX; assay: Growth inhibition of human EKVX cells assessed as cell growth at 0.1 uM after 48 hrs by SRB assay; conditions: read-out: Activity
[13] = test system: KM12; assay: Growth inhibition of human KM12 cells assessed as cell growth at 0.1 uM after 48 hrs by SRB assay; conditions: KM12, 48 h, read-out: Activity
[14] = test system: SNB-19; assay: Growth inhibition of human SNB19 cells assessed as cell growth at 0.1 uM after 48 hrs by SRB assay; conditions: SNB-19, 48 h, read-out: Activity
[15] = test system: M14; assay: Growth inhibition of human M14 cells assessed as cell growth at 0.1 uM after 48 hrs by SRB assay; conditions: M14, 48 h, read-out: Activity
[16] = test system: SK-MEL-5; assay: Growth inhibition of human SK-MEL-5 cells assessed as cell growth at 0.1 uM after 48 hrs by SRB assay; conditions: SK-MEL-5, 48 h, read-out: Activity
[17] = test system: OVCAR-8; assay: Growth inhibition of human OVCAR8 cells assessed as cell growth at 0.1 uM after 48 hrs by SRB assay; conditions: OVCAR-8, 48 h, read-out: Activity
[18] = test system: CAKI-1; assay: Growth inhibition of human Caki1 cells assessed as cell growth at 0.1 uM after 48 hrs by SRB assay; conditions: CAKI-1, 48 h, read-out: Activity
[19] = test system: DU-145; assay: Growth inhibition of human DU145 cells assessed as cell growth at 0.1 uM after 48 hrs by SRB assay; conditions: DU-145, 48 h, read-out: Activity
[20] = test system: MDA-MB-231; assay: Growth inhibition of human MDA-MB-231 cells assessed as cell growth at 0.1 uM after 48 hrs by SRB assay; conditions: MDA-MB-231, 48 h, read-out: Activity
[21] = test system: 786-0; assay: Growth inhibition of human 786-0 cells assessed as cell growth at 10 uM after 48 hrs by SRB assay; conditions: 786-0, 48 h, read-out: Activity
[22] = test system: ACHN; assay: Growth inhibition of human ACHN cells assessed as cell growth at 10 uM after 48 hrs by SRB assay; conditions: read-out: Activity
[23] = test system: PC-3; assay: Growth inhibition of human PC3 cells assessed as cell growth at 10 uM after 48 hrs by SRB assay; conditions: PC-3, 48 h, read-out: Activity
[24] = test system: NCI-H522; assay: Growth inhibition of human NCI-H522 cells assessed as cell growth at 100 uM after 48 hrs by SRB assay; conditions: NCI-H522, 48 h, read-out: Activity
[25] = test system: OVCAR-4; assay: Growth inhibition of human OVCAR4 cells assessed as cell growth at 100 uM after 48 hrs by SRB assay; conditions: OVCAR-4, 48 h, read-out: Activity
[26] = test system: RXF 393; assay: Growth inhibition of human RXF393 cells assessed as cell growth at 100 uM after 48 hrs by SRB assay; conditions: RXF 393, 48 h, read-out: Activity
[27] = Growth inhibition of human […] cells assessed as cell growth at 1 mM after 48 hrs by SRB assay; conditions: read-out: Activity
[28] = test system: HT-29; assay: Growth inhibition of human HT-29 cells assessed as cell growth at 1 mM after 48 hrs by SRB assay; conditions: HT-29, 48 h, read-out: Activity
[29] = test system: NCI/ADR-RES; assay: Growth inhibition of human NCI/ADR-RES cells after 48 hrs by SRB assay
[30] = test system: HOP-62; assay: Growth inhibition of human HOP62 cells assessed as cell growth at 1 uM after 48 hrs by SRB assay; conditions: HOP-62, 48 h, read-out: Activity
[31] = test system: SF-539; assay: Growth inhibition of human SF539 cells assessed as cell growth at 1 uM after 48 hrs by SRB assay; conditions: SF-539, 48 h, read-out: Activity
[32] = test system: SNB-19; assay: Growth inhibition of human SNB19 cells assessed as cell growth at 1 uM after 48 hrs by SRB assay; conditions: SNB-19, 48 h, read-out: Activity
[33] = test system: M14; assay: Growth inhibition of human M14 cells assessed as cell growth at 1 uM after 48 hrs by SRB assay; conditions: M14, 48 h, read-out: Activity
[34] = read-out: LC50 (the source's name)
[35] = read-out: pLC50 (the source's name) (converted)

SMILES: CNC(=O)NC[C@H]1O[C@@H](n2cnc3c(NC(=O)Nc4ccccc4)ncnc32)[C@H](O[Si](C)(C)C(C)(C)C)[C@@H]1O[Si](C)(C)C(C)(C)C
- growth at 10 µM [1]: 104%
- growth at 10 µM [2]: 105%
- growth at 10 µM [3]: 69%
- growth at 10 µM [4]: 102%
- growth at 10 µM [5]: 107%
- GI50 ([6]; read-out: GI50): 2430 nM
- CC50 [6, 34]: > 100 µM
- TGI ([6]; read-out: TGI): 34.1 µM
- GI50 ([6]; read-out: pGI50 (converted)): 2450 nM
- CC50 [6, 35]: > 100 µM
- TGI ([6]; read-out: pTGI (converted)): 33.9 µM
- GI50 ([7]; read-out: GI50): 2960 nM
- CC50 [7, 34]: > 100 µM
- TGI ([7]; read-out: TGI): 10.8 µM
- GI50 ([7]; read-out: pGI50 (converted)): 2950 nM
- CC50 [7, 35]: > 100 µM
- TGI ([7]; read-out: pTGI (converted)): 10.7 µM
- GI50 ([8]; read-out: GI50): 4.01 µM
- CC50 [8, 34]: > 100 µM
- TGI ([8]; read-out: TGI): 40.1 µM
- GI50 ([8]; read-out: pGI50 (converted)): 3.98 µM
- CC50 [8, 35]: > 100 µM
- TGI ([8]; read-out: pTGI (converted)): 39.8 µM
- GI50 ([9]; read-out: GI50): 6.88 µM
- CC50 [9, 34]: > 100 µM
- TGI ([9]; read-out: TGI): > 100 µM
- GI50 ([9]; read-out: pGI50 (converted)): 6.92 µM
- CC50 [9, 35]: > 100 µM
- TGI ([9]; read-out: pTGI): > 100 µM
- GI50 ([10]; read-out: GI50): 2040 nM
- CC50 [10, 34]: 6.75 µM
- TGI ([10]; read-out: TGI): 3.71 µM
- GI50 ([10]; read-out: pGI50 (converted)): 2040 nM
- CC50 [10, 35]: 6.76 µM
- TGI ([10]; read-out: pTGI (converted)): 3.72 µM
- GI50 ([11]; read-out: GI50): 2700 nM
- CC50 [11, 34]: > 100 µM
- TGI ([11]; read-out: TGI): 7.93 µM
- GI50 ([11]; read-out: pGI50 (converted)): 2690 nM
- CC50 [11, 35]: > 100 µM
- TGI ([11]; read-out: pTGI (converted)): 7.94 µM
- growth at 0.1 µM [12]: 105%
- growth at 0.1 µM [13]: 104%
- growth at 0.1 µM [14]: 97%
- growth at 0.1 µM [15]: 101%
- growth at 0.1 µM [16]: 102%
- growth at 0.1 µM [17]: 108%
- growth at 0.1 µM [18]: 103%
- growth at 0.1 µM [19]: 103%
- growth at 0.1 µM [20]: 105%
- growth at 10 µM [21]: 110%
- growth at 10 µM [22]: 105%
- growth at 10 µM [23]: 83%
- growth at 100 µM [24]: -15%
- growth at 100 µM [25]: 7%
- growth at 100 µM [26]: -73%
- growth at 1000 µM [27]: 4%
- growth at 1000 µM [28]: -100%
- GI50 ([29]; read-out: GI50): 3.72 µM
- CC50 [29, 34]: > 100 µM
- TGI ([29]; read-out: TGI): 20.7 µM
- GI50 ([29]; read-out: pGI50 (converted)): 3.72 µM
- CC50 [29, 35]: > 100 µM
- TGI ([29]; read-out: pTGI (converted)): 20.9 µM
- growth at 1 µM [30]: 108%
- growth at 1 µM [31]: 100%
- growth at 1 µM [32]: 100%
- growth at 1 µM [33]: 107%
